Where two headings read alike, the source gives them in different places.
Experiments:
Luciferase = assay: luciferase assay without PKA (Luciferase Only); type: biochemical
From the text: . Therefore, a competitive kinetic study was further conducted to investigate how 1 interacted with the PKA protein. […]. Thus, all the results supported that 1 was likely to function as an ATP-competitive inhibitor by direct interacting with the PKA catalytic unit (see FIGS. 2A-2B).

CLK1 = target: T1, CLK1 (Homo sapiens, UniProt P49759); assay: HOTSPOT radiometric kinase assay; type: biochemical; settings: 2 μM, 10 μM ATP
T1 construct: purchased Reaction Biology Corp

PKCγ = target: T2, PKCγ (Homo sapiens, UniProt P05129); assay: HOTSPOT radiometric kinase assay; type: biochemical
T2 construct: purchased Reaction Biology Corp

PKCv/PKD3 = target: T3, PKCv/PKD3 (Homo sapiens, UniProt O94806); assay: HOTSPOT radiometric kinase assay; type: biochemical
T3 construct: purchased Reaction Biology Corp
T3 sequence (O94806 1-890): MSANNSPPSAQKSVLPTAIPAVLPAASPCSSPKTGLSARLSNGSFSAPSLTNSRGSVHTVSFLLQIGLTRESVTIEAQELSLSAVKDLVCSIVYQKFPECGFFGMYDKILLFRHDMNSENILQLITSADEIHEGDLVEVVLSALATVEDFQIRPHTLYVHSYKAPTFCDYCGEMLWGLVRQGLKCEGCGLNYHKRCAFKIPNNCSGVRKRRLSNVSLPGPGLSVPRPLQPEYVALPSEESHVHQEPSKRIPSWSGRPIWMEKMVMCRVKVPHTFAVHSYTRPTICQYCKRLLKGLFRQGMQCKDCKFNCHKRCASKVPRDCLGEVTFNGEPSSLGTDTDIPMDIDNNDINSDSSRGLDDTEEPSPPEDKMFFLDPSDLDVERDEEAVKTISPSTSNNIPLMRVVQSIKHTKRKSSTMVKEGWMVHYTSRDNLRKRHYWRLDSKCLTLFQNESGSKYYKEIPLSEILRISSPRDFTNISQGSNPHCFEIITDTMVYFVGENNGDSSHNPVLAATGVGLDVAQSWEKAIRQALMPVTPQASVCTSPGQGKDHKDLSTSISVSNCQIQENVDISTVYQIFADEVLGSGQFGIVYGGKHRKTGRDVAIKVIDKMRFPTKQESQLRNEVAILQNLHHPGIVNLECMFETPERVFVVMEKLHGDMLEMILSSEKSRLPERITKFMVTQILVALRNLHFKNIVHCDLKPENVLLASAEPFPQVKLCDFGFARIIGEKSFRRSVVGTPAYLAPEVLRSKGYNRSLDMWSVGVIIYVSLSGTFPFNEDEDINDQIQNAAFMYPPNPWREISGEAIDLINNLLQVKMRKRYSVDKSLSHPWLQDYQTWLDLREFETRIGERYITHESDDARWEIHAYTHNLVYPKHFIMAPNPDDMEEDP

DYRK1A = target: T4, DYRK1A (Homo sapiens, UniProt Q13627); assay: HOTSPOT radiometric kinase assay; type: biochemical
T4 construct: purchased Reaction Biology Corp

DYRK1B = DYRK1B (Homo sapiens, UniProt Q9Y463); assay: HOTSPOT radiometric kinase assay; type: biochemical
Sequence of DYRK1B (Q9Y463 whole entry): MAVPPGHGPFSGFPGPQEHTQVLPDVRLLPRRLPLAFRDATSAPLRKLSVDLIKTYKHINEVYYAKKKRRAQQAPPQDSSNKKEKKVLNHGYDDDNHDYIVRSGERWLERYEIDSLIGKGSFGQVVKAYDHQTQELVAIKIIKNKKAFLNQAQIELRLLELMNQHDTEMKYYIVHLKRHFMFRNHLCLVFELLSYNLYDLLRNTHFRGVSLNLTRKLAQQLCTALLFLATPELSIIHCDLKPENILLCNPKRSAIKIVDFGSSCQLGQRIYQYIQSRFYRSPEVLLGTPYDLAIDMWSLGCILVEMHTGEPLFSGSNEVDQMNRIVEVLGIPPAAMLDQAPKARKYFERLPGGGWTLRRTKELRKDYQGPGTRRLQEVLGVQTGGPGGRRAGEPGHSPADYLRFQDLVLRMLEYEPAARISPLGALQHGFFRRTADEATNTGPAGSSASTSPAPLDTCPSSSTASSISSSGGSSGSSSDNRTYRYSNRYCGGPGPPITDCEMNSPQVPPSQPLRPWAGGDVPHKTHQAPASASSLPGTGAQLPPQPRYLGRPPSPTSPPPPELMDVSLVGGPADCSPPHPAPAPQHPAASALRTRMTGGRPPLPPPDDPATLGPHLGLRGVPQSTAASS

FLT3 = target: T5, FLT3 (Homo sapiens, UniProt P36888); assay: HOTSPOT radiometric kinase assay; type: biochemical
T5 construct: purchased Reaction Biology Corp

MPSK1 = target: T6, MPSK1 (Homo sapiens, UniProt O75716); assay: HOTSPOT radiometric kinase assay; type: biochemical; settings: 10 μM ATP
T6 construct: purchased Reaction Biology Corp
T6 sequence (O75716 whole entry): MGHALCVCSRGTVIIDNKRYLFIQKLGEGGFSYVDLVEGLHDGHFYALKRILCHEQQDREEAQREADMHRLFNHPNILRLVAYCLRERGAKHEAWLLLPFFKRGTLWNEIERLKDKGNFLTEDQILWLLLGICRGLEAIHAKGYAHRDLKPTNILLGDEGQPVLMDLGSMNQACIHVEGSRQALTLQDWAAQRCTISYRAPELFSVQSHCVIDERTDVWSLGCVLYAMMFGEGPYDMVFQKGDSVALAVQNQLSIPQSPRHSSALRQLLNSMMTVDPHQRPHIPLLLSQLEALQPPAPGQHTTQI

BMPR2 = target: T7, BMPR2 (Homo sapiens, UniProt Q13873); assay: HOTSPOT radiometric kinase assay; type: biochemical; settings: 10 μM ATP
T7 construct: purchased Reaction Biology Corp

PKCη = target: T8, PKCη (Homo sapiens, UniProt P24723); assay: HOTSPOT radiometric kinase assay; type: biochemical
T8 construct: purchased Reaction Biology Corp
T8 sequence (P24723 whole entry): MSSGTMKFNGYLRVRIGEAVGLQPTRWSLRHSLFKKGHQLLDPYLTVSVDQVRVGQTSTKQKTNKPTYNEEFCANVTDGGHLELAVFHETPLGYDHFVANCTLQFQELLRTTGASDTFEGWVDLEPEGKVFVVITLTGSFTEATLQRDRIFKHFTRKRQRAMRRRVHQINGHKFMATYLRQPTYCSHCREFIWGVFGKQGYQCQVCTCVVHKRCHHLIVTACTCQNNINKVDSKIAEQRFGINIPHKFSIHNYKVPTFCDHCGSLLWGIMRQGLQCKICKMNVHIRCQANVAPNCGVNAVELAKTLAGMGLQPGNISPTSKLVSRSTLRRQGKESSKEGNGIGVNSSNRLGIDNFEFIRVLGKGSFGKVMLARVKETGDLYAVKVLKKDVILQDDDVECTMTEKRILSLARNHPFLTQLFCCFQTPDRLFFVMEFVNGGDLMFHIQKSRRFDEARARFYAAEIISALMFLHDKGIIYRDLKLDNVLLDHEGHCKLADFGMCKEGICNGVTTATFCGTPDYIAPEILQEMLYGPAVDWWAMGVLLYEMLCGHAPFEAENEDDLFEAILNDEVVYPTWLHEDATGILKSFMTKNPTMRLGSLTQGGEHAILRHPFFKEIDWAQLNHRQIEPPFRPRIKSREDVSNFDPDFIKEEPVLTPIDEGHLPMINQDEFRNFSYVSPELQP

P70S6K = target: T9, P70S6K (Homo sapiens, UniProt P23443); assay: HOTSPOT radiometric kinase assay; type: biochemical; settings: 10 μM ATP
T9 construct: purchased Reaction Biology Corp

RSK1 = target: T10, RSK1 (Homo sapiens, UniProt Q15418); assay: HOTSPOT radiometric kinase assay; type: biochemical; settings: 10 μM ATP
T10 construct: purchased Reaction Biology Corp

BRAF = target: T11, BRAF (Homo sapiens, UniProt P15056); assay: HOTSPOT radiometric kinase assay; type: biochemical; settings: 10 μM ATP
T11 construct: purchased Reaction Biology Corp
T11 sequence (P15056 whole entry): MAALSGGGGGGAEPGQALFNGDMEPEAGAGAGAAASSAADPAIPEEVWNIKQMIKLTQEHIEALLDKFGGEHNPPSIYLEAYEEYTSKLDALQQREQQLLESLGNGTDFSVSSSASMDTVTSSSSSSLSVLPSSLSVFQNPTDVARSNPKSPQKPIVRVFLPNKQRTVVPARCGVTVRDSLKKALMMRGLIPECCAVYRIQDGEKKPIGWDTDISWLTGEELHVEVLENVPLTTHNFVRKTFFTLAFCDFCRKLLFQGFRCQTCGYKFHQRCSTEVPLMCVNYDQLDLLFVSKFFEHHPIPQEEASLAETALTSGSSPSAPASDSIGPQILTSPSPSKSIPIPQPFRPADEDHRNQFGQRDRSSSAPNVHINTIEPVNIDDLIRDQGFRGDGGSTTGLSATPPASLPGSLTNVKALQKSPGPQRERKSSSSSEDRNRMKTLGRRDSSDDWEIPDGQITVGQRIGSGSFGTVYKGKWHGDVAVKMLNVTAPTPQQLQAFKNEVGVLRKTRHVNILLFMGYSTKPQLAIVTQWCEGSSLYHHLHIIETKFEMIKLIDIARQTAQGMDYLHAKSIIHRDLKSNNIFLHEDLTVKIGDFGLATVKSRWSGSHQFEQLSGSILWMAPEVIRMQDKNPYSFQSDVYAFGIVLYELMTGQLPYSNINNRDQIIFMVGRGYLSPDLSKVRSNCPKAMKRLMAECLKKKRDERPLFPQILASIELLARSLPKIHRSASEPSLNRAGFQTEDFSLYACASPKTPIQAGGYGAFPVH

PKCδ = target: T12, PKCδ (Homo sapiens, UniProt Q05655); assay: HOTSPOT radiometric kinase assay; type: biochemical
T12 construct: purchased Reaction Biology Corp
T12 sequence (Q05655 whole entry): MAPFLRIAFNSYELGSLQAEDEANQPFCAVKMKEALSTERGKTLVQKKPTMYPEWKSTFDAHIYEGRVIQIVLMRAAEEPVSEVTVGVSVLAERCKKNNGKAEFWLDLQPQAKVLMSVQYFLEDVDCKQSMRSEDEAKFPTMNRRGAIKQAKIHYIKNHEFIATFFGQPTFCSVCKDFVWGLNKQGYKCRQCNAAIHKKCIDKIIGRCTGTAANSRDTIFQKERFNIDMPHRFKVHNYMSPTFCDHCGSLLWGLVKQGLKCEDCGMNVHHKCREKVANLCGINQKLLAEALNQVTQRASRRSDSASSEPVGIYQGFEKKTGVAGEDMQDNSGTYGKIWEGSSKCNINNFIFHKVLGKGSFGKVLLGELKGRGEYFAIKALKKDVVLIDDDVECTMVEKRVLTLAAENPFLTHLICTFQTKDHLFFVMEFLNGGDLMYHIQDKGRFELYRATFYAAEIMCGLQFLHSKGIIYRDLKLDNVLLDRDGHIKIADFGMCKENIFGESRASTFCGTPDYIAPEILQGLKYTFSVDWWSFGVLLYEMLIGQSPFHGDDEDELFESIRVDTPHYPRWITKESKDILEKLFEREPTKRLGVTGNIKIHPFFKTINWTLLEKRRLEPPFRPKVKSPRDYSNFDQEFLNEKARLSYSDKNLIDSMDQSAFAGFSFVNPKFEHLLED

CDK9 = target: T13, CDK9 (Homo sapiens, UniProt P50750); assay: HOTSPOT radiometric kinase assay; type: biochemical; settings: 50 nM, 10 μM ATP
T13 construct: purchased Reaction Biology Corp

RSK2 = target: T14, RSK2 (Homo sapiens, UniProt P51812); assay: HOTSPOT radiometric kinase assay; type: biochemical; settings: 10 μM ATP
T14 construct: purchased Reaction Biology Corp
T14 sequence (P51812 whole entry): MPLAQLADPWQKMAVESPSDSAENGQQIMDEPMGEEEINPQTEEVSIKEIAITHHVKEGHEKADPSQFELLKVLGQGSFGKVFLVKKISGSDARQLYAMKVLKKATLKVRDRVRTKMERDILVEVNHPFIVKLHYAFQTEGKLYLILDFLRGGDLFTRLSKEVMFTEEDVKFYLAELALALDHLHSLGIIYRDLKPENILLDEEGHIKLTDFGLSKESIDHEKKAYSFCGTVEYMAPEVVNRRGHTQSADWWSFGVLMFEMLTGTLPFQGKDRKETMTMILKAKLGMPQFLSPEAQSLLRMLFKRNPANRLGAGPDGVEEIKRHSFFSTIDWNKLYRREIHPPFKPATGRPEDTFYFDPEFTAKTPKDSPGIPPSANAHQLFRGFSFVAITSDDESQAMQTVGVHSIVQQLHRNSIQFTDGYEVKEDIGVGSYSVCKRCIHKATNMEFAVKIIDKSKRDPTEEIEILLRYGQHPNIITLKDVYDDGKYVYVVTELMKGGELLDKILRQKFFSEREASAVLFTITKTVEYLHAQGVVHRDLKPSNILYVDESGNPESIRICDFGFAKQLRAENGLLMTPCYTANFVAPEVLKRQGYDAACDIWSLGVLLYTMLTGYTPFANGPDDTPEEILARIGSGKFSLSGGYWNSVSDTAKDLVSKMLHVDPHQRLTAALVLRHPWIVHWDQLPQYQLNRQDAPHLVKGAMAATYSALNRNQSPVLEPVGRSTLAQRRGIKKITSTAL

CLK3 = target: T15, CLK3 (Homo sapiens, UniProt P49761); assay: HOTSPOT radiometric kinase assay; type: biochemical; settings: 10 μM ATP
T15 construct: purchased Reaction Biology Corp. (Malvern, PA, USA)

CAMK1δ = CAMK1δ (Homo sapiens, UniProt Q8IU85); assay: HOTSPOT radiometric kinase assay
Sequence of CAMK1δ (Q8IU85 whole entry): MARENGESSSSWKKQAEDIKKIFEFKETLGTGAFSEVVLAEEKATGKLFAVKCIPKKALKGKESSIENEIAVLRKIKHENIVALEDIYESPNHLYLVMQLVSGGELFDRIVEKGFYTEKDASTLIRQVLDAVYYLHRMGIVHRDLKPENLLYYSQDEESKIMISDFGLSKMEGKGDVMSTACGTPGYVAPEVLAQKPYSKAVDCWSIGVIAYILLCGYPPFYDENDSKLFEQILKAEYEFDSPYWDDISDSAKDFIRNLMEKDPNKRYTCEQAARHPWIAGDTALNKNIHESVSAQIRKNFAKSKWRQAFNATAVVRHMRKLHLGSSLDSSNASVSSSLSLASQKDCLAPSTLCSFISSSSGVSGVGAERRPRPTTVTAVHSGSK

FLT1/VEGFR1 = FLT1/VEGFR1 (Homo sapiens, UniProt P17948); assay: HOTSPOT radiometric kinase assay
GSK3β = GSK3β (Homo sapiens, UniProt P49841); assay: HOTSPOT radiometric kinase assay

Compound: Cn1cncc1C1=CN(c2ncnc3nc[nH]c23)CCS1 [Compound 1, Aplithianine A]
- activity when PKA was absent in the assay (Luciferase): no activity was observed
- inhibition at 2 µM (CLK1): 97.3%
- inhibition at 0.05 µM (PKCγ; 50 nM, 10 μM ATP): 30.5%
- inhibition at 2 µM (PKCγ; 2 μM, 10 μM ATP): 92.8%
- IC50 (PKCγ; 10 μM ATP, read-out: PKCγ IC50): 234 nM
- PKCg Differential (as compared to PKG1a) (PKCγ; IC50 (kinase)/IC50 (PKG1a)): 13.99
- IC50 (PKCγ; Table 4 dose-response, read-out: PKCg IC50 Values): 159 nM
- inhibition at 0.05 µM (PKCv/PKD3; 50 nM, 10 μM ATP): 25%
- inhibition at 2 µM (PKCv/PKD3; 2 μM, 10 μM ATP): 88.9%
- IC50 (PKCv/PKD3; 10 μM ATP, read-out: PKCv/PKD3 IC50): 130 nM
- PKCnu Differential (as compared to PKG1a) (PKCv/PKD3; IC50 (kinase)/IC50 (PKG1a)): 11.92
- IC50 (PKCv/PKD3; Table 4 dose-response, read-out: PKCnu IC50 Values): 136 nM
- inhibition at 0.05 µM (DYRK1A; 50 nM, 10 μM ATP): 23.1%
- inhibition at 2 µM (DYRK1A; 2 μM, 10 μM ATP): 95.4%
- IC50 (DYRK1A; 10 μM ATP, read-out: DYRK1A IC50): 119 nM
- DYRK1A Differential (as compared to PKG1a) (DYRK1A; IC50 (kinase)/IC50 (PKG1a)): 10.01
- IC50 (DYRK1A; Table 4 dose-response, read-out: DYRK1A IC50 Values): 114 nM
- inhibition at 0.05 µM (DYRK1B; 50 nM, 10 μM ATP): 22.7%
- inhibition at 2 µM (DYRK1B; 2 μM, 10 μM ATP): 95.3%
- IC50 (DYRK1B; 10 μM ATP, read-out: DYRK1B IC50): 134 nM
- DYRK1B Differential (as compared to PKG1a) (DYRK1B; IC50 (kinase)/IC50 (PKG1a)): 11.87
- IC50 (DYRK1B; Table 4 dose-response, read-out: DYRK1B IC50 Values): 135 nM
- inhibition at 0.05 µM (FLT3; 50 nM, 10 μM ATP): 22.2%
- inhibition at 2 µM (FLT3; read-out: FLT3 % inhibition): 88.1%
- inhibition at 0.05 µM (MPSK1; 50 nM): 22%
- inhibition at 2 µM (MPSK1; 2 μM): 49.5%
- inhibition at 0.05 µM (BMPR2; 50 nM): 21.3%
- inhibition at 2 µM (BMPR2; 2 μM): 74%
- inhibition at 0.05 µM (PKCη; 50 nM, 10 μM ATP): 15.8%
- inhibition at 2 µM (PKCη; 2 μM, 10 μM ATP): 83.6%
- IC50 (PKCη; 10 μM ATP, read-out: PKCη IC50): 202 nM
- PKCeta Differential (as compared to PKG1a) (PKCη; IC50 (kinase)/IC50 (PKG1a)): 16.08
- IC50 (PKCη; Table 4 dose-response, read-out: PKCeta IC50 Values): 183 nM
- inhibition at 0.05 µM (P70S6K; 50 nM): 14%
- inhibition at 2 µM (P70S6K; 2 μM): 87.3%
- inhibition at 0.05 µM (RSK1; 50 nM): 13%
- inhibition at 2 µM (RSK1; 2 μM): 82%
- inhibition at 0.05 µM (BRAF; 50 nM): 12.9%
- inhibition at 2 µM (BRAF; 2 μM): 35.1%
- inhibition at 0.05 µM (PKCδ; 50 nM, 10 μM ATP): 12.6%
- inhibition at 2 µM (PKCδ; 2 μM, 10 μM ATP): 81.1%
- IC50 (PKCδ; 10 μM ATP, read-out: PKCδ IC50): 184 nM
- PKCd Differential (as compared to PKG1a) (PKCδ; IC50 (kinase)/IC50 (PKG1a)): 16.77
- IC50 (PKCδ; Table 4 dose-response, read-out: PKCd IC50 Values): 191 nM
- inhibition at 0.05 µM (CDK9): 12.4%
- inhibition at 0.05 µM (RSK2; 50 nM): 12.3%
- inhibition at 2 µM (RSK2; 2 μM): 66%
- IC50 (CLK3): 14100 nM
- IC50 (CAMK1δ): 18000 to 65000 nM
- IC50 (CAMK1δ; read-out: CAMK1δ IC50, 10 μM ATP): 52300 nM
- IC50 (FLT1/VEGFR1): 18000 to 65000 nM
- IC50 (FLT1/VEGFR1; read-out: FLT1/VEGFR1 IC50, 10 μM ATP): 18800 nM
- IC50 (GSK3β): 43 to 189 nM
- IC50 (GSK3β; read-out: GSK3β IC50, 10 μM ATP): 99 nM

Reference: patent US20260184713A1, “KINASE INHIBITORS” (The United States of America, as represented by the …, priority 2022, published 2026)
